The subject of assay [1] is histamine receptor. As to conditions: read at 510 nm, blank .400, background .095. The protocol: (§1) In order to free the histamine receptors from the cell wall, the cells were washed three times in phosphate buffered saline, resuspended at a concentration of 1×10^7 cells per ml in phosphate-buffered saline and either stored at 4° C. for three days or incubated at 46° C. for 90 minutes. The cells were then centrifuged at 1000 X G for ten minutes. The supernatant liquid containing the shed histamine receptors was removed by aspiration and the cell pellet discarded.
(§2) Samples of 200 microliters of heat-inactivated fetal calf sera were added to each well of a polystyrene microtiter plate as a protein pretreatment and the seracontaining plates were incubated at 25° C. for 15 minutes. Each well was then washed twice with phosphate-buffered saline. To each well was added 200 microliters of 1 millimolar trinitrobenzene sulfonate in phosphate-buffered saline, and the plate was incubated at 37° C. for thirty minutes. Each well was then washed three times with phosphate-buffered saline. To each well was then added 200 microliters of histamine receptor in phosphate buffered saline prepared according to the procedure of EXAMPLE 1. The plate was then incubated at 25° C. for thirty minutes. After the incubation, each well was washed three times with phosphate-buffered saline and the plates were allowed to air dry at 25° C. for about 16 hours, then stored at 4° C.

In assay [2] the test system is histamine receptor on whole cells. To be noted: 1×10^6 cells. The procedure:
(§3) To determine the sensitivity of the histamine assay, an inhibition assay was performed using whole cells with histamine in 0.01M phosphate-bufferedsaline as the inhibitor. The histamine was incubated with 1×10^6cells for 30 minutes. The unbound inhibitor was washed out and the histamine-enzyme added and incubated 30 minutes. After washing out the unbound indicator, the enzyme substrate, p-nitrophenyl phosphate was added and incubated for 1 hour at 37° C. The enzymatic reaction was stopped with 1N aqueous sodium hydroxide and the absorbance at A410 read from a Beckman spectrophotometer. The amount of product formed was inversely proportional to the amount of free histamine bound to the cells.

The test system of assay [3] is cell surface histamine receptors. To be noted: phosphate-buffered saline. The procedure: as §1, §2
(§4) Cell surface histamine receptors prepared as described in EXAMPLE 1 were affixed to microtiter plate wells by protein pretreatment (see EXAMPLE 2) of the plate followed by surface activation with 1 millimolar trinitrobenzene sulfonate as described in EXAMPLE 2.
(§5) The various quantities of histamine in phosphate-buffered saline were incubated in several replications with the receptor. […] After washing out the unbound indicator, para-nitrophenyl phosphate was added and incubated for 1 hour at 37° C. The enzymatic reaction was stopped with 1N aqueous sodium hydroxide and the absorbance at A410 read from a Beckman spectrophotometer.

The subject of assay [4] is histamine receptors attached to a solid phase. To be noted: anticoagulated human whole blood. The protocol: as §3, §4, §5
Using the method described in EXAMPLES 6 and 7, the sensitivity of the assay to histamine dissolved in anticoagulated human whole blood was measured.

Assay [5] relates to histamine receptor on whole cells. The procedure:
The reaction was stopped with 1N aqueous sodium hydroxide and the product formed was quantified spectrophotometrically. The total enzyme activity was determined by incubating 10 microliters of the dilutions of histamine-enzyme with the enzyme substrate for 60 minutes, stopping the reaction with lN aqueous sodium hydroxide and quantifying the product formed.

Assay [6] deals with histamine receptor. The procedure:
as §2

Structures can show the parent of a compound that is named as a salt. Where two headings read alike, the source gives them in different places.

On to `NCCc1c[nH]cn1` [Histamine, histamine], for which the Absorbance result in assay [1] (25 micrograms histamine per well) is “.310”; in assay [1] (50 micrograms histamine per well), “.285”; in assay [1] (75 micrograms histamine per well), “.205”; in assay [1] (100 micrograms histamine per well), “.125”. The “Percent inhibition of enzyme activity” value is 7% in assay [2] (histamine added 500 pg); 14% in assay [2] (histamine added 5 ng); 24% in assay [2] (histamine added 50 ng); 32% in assay [2] (histamine added 500 ng); 45% in assay [2] (histamine added 5 g (so in the source)); 69% in assay [2] (histamine added 50 g (so in the source)). Further, the “Percent inhibition of enzyme activity” value in assay [3] (0.05 ng histamine added) is on record as 30%; in assay [3] (0.1 ng histamine added) it was 40%; in assay [3] (0.25 ng histamine added), 46%; in assay [3] (0.5 ng histamine added), 52%; in assay [3] (1 ng histamine added), 60%; in assay [3] (5 ng histamine added), 65%. In addition, the “Percent inhibition of enzyme activity” value in assay [3] (10 ng histamine added) worked out at 72%; in assay [3] (25 ng histamine added) it was 79%; in assay [4] (1 ng histamine added), 49%; in assay [4] (5 ng histamine added), 70%; in assay [4] (10 ng histamine added), 79%; in assay [4] (25 ng histamine added), 91%. The “Inhibition of receptor-bound histamine-enzyme stimulation” value in assay [5] was “inhibitable”. Moreover, the “Effect of added histamine on the enhanced enzyme activity” value in assay [5] (histamine added before incubation with histamine-alkaline phosphatase) is “inhibited”.

Consider `[3H]c1nc(CCN)c([3H])[nH]1` [3H-labeled histamine, 2,5-^3 H-histamine hydrochloride], for which the “Average 3H Counts per minute” value in assay [6] (control wells (nonspecific binding)) is 1172 Counts per minute; in assay [6] (receptor wells), 7968 Counts per minute.

(Values after patent US4544629A, “Receptor-based histamine assay” (Minnesota Mining and Manufacturing Company, priority 1982, dated 1985).)
